Laboratory results taken from paper PMC5216056 (Nature Communications, 2017).
Read-outs that look alike come from different tables or passages of the source.

What was measured:
[1] = test system: AEA reuptake in HaCaT cells; experiment: cells; type: cell-based, human; conditions: for IC50: read-out: AEA reuptake IC50 (95% CI) HaCaT cells
GR (h) = biological target: T1, GR (h) (Homo sapiens, UniProt P04150); experiment: CEREP panel; type: binding
T1 construct: CEREP (contract assay)
T1 sequence (P04150 1-777): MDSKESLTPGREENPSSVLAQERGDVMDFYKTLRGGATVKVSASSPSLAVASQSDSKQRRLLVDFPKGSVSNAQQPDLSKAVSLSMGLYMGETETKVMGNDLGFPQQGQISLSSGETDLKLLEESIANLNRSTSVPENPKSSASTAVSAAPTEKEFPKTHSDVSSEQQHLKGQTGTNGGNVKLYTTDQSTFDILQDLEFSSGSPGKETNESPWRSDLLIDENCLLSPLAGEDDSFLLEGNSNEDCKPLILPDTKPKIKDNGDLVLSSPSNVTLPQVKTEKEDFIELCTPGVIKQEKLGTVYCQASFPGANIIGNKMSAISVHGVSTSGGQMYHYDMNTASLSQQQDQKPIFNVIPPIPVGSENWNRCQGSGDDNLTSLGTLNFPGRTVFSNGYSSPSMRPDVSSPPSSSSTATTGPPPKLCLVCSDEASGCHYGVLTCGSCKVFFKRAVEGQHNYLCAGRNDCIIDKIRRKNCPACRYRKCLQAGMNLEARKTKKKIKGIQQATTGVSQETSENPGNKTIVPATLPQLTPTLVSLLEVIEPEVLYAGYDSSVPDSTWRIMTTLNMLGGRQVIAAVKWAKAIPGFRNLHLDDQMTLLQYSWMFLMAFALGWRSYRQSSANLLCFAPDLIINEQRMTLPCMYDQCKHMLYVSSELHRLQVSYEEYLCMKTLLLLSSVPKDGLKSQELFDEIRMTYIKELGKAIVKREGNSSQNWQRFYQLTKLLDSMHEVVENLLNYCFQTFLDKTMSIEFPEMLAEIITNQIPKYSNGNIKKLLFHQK

[2] = for Pct acceptor / Pct donor / Pct membrane: PAMPA; for Pct membrane: compound found in membranes; for Pampa Peff: membrane permeation coefficient
hDAGL-α = biological target: T2, hDAGL-α (Homo sapiens, UniProt Q9Y4D2); experiment: Biochemical DAGLα activity assay
T2 construct: expressed in transfected cells; host or cells: HEK293T (transient), membrane preparation
T2 sequence (Q9Y4D2 1-1042): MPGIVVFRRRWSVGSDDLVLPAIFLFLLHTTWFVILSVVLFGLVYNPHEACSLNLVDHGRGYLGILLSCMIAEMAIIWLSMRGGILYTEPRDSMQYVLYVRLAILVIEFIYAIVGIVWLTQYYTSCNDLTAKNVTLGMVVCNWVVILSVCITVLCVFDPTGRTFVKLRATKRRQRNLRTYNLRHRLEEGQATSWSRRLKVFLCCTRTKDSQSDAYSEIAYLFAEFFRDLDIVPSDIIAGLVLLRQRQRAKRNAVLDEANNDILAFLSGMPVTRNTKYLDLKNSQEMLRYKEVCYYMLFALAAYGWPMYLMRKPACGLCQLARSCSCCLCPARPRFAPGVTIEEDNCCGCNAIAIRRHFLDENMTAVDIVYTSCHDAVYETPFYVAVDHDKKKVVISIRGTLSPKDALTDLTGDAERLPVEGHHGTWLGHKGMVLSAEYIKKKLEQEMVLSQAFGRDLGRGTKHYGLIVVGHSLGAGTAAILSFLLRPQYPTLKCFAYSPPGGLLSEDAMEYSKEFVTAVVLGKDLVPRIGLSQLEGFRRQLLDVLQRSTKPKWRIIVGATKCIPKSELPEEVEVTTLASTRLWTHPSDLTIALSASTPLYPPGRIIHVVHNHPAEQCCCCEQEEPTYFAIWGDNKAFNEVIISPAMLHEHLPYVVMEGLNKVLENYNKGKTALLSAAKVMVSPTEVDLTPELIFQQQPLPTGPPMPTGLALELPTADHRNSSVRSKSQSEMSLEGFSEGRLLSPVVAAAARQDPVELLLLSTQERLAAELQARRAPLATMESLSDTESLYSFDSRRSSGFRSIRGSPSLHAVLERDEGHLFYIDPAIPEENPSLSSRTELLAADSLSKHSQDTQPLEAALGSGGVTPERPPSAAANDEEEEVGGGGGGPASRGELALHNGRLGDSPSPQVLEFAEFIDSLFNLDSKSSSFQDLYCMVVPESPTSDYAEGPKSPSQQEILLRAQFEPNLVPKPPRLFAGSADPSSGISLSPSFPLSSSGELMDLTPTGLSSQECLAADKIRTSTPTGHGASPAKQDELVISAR
Experimental: Cell culture and membrane preparation were performed as previously described. HEK293T cells (source: Dutch Cancer Institute) were grown in DMEM with stable glutamine and phenolred (PAA), 10% New Born Calf serum, penicillin and streptomycin. Cells were passaged every 2–3 days by resuspending in medium and seeding them to appropriate confluence. Membranes were prepared from transiently transfected HEK293T cells. One day prior to transfection 10^7 cells were seeded in a 15 cm petri dish. Cells were transfected by the addition of a 3:1 mixture of polyethyleneimine (60 μg) and plasmid DNA (20 μg) in 2 ml serum-free medium. The medium was refreshed after 24 h, and after 72 h the cells were harvested by suspending them in 20 ml medium. The suspension was centrifuged for 10 min at 1000, rpm, and the supernatant was removed. The cell pellet was stored at −80 °C until use. Cell pellets were thawed on ice and suspended in lysis buffer A (20 mM HEPES, 2 mM DTT, 0.25 M sucrose, 1 mM MgCl2, […] Benzonase). The suspension was homogenized by polytrone (3 × 7 s) and incubated for 30 min on ice. The suspension was subjected to ultracentrifugation (100,000 × g, 30 min, 4 °C, Beckman Coulter, Type Ti70 rotor) to yield the cytosolic fraction in the supernatant and the membrane fraction as a pellet. The pellet was resuspended in lysis buffer B (20 mM HEPES, 2 mM DTT). The protein concentration was determined with Quick Start Bradford assay (Biorad). The protein fractions were diluted to a total protein concentration of 1 mg ml^−1 and stored in small aliquots at −80 °C until use.
hDAGL-α activity was measured by the extent of the hydrolysis of para-nitrophenylbutyrate (PNP-butyrate) by membrane preparations from HEK293T cells (source: Dutch Cancer Institute) transiently transfected with hDAGL-α (ref. [43]). Percentage of inhibition of reference ligands was determined in comparison with an untreated control. Reactions were performed in 50 mM pH 7.2 HEPES buffer with 0.05 μg μl^−1 final protein concentration hDAGL-α transfected protein.

hCB2R = hCB2R (Homo sapiens, UniProt P34972); experiment: cell-based; type: cell-based
hCB2R, sequence (P34972 whole entry): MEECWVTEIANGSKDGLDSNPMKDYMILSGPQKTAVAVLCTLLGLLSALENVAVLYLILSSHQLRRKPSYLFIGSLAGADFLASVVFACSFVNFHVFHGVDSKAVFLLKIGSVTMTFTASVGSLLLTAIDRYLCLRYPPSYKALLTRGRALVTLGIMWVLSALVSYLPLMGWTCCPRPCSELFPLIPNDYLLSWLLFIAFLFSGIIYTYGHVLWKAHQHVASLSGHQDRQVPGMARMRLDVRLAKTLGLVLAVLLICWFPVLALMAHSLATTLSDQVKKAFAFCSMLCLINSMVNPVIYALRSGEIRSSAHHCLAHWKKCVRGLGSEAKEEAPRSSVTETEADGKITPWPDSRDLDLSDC

CCCCCCC(C)(C)c1cc(OC)c(C2=C[C@H]3CC[C@]2(CO)C3(C)C)c(OC)c1 [HU910]
AEA reuptake % inhibition, effect at 10 µM, HaCaT cells ([1]; 10 µM (values marked *)): 38%
IC50 [1]: > 10000 nM
% inhibition GR (h) (GR (h); 10 µM): 4%
Pct acceptor [2]: 1%
Pct donor [2]: 42%
Pct membrane [2]: 57%
Pampa Peff [2]: 0.45 cm/s*10-6
DAGL % inhibition at 10 µM ± SD (hDAGL-α; 10 µM): 36 ± 1%
pEC50 ± SEM β-AR recruitment hCB2R (hCB2R; antagonists in presence of EC80 of CP55940): 7.75 ± 0.03
Emax ± SEM β-AR recruitment hCB2R (hCB2R; normalized to 10 µM CP55940, negative = inhibition of EC80 of CP55940): 48 ± 6%

CCCCCCC(C)(C)c1cc(OC)c([C@@H]2C=C(CO)[C@@H]3C[C@H]2C3(C)C)c(OC)c1 [HU308]
IC50 ([1]; Homo sapiens, HaCaT): 2210 nM
AEA reuptake Efficacy (% inhibition) HaCaT cells ([1]; from dose-response): 69%
inhibition at 10 µM (GR (h); read-out: % inhibition GR (h)): 4%
Pct acceptor [2]: 2.8%
Pct donor [2]: 23.1%
Pct membrane [2]: 74.3%
Pampa Peff [2]: 2.53 cm/s*10-6
inhibition at 10 µM (hDAGL-α; read-out: DAGL % inhibition at 10 µM ± SD): 42 ± 3%
Emax (hCB2R; read-out: Emax ± SEM β-AR recruitment hCB2R): 57 ± 10%
